This passage reports MIC results from ChEMBL document CHEMBL3046063, “Synthesis and antimicrobial activity of 5-chloroindoline-2,3-dione derivatives” (2012).

Holding throughout (type): functional
One assay concerns Bacillus cereus. In words: Antimicrobial activity against Bacillus cereus ATCC 11778 after 24 hr by broth dilution method. The following applies: ATCC 11778, 24 h.
The next assay deals with Alternaria alternata. In words: Antimicrobial activity against Alternaria alternata ATCC 66868 after 24 hr by broth dilution method. The settings on record: ATCC 66868, 24 h.
A further assay relates to Klebsiella pneumoniae. In words: Antimicrobial activity against Klebsiella pneumoniae ATCC 13883 after 24 hr by broth dilution method. The settings on record: ATCC 13883, 24 h.
For the next assay, the system named is Fusarium solani. In words: Antimicrobial activity against Fusarium solani ATCC 38136 after 24 hr by broth dilution method. The settings on record: ATCC 38136, 24 h.
Another assay has as its system Rhizoctonia solani. Nature of the assay: Antimicrobial activity against Rhizoctonia solani ATCC 76131 after 24 hr by broth dilution method. The settings on record: ATCC 76131, 24 h.
The next assay has as its system Staphylococcus aureus. Nature of the assay: Antimicrobial activity against Staphylococcus aureus ATCC 25923 after 24 hr by broth dilution method. The settings on record: ATCC 25923, 24 h.
A further assay has as its system Proteus mirabilis. Nature of the assay: Antimicrobial activity against Proteus mirabilis ATCC 49565 after 24 hr by broth dilution method. The settings on record: ATCC 49565, 24 h.
Another assay concerns Aspergillus flavus. Nature of the assay: Antimicrobial activity against Aspergillus flavus ATCC 15517 after 24 hr by broth dilution method. The settings on record: ATCC 15517, 24 h.
The subject of another assay is Trichophyton longifusum. In words: Antimicrobial activity against Trichophyton longifusum ATCC 22397 after 24 hr by broth dilution method. The settings on record: ATCC 22397, 24 h.
The next assay deals with Proteus vulgaris. In words: Antimicrobial activity against Proteus vulgaris ATCC 13315 after 24 hr by broth dilution method. The settings on record: ATCC 13315, 24 h.
Another assay deals with Micrococcus luteus. Nature of the assay: Antimicrobial activity against Micrococcus luteus ATCC 4698 after 24 hr by broth dilution method. The following applies: ATCC 4698, 24 h.
The subject of the next assay is Aspergillus niger. Nature of the assay: Antimicrobial activity against Aspergillus niger ATCC 9142 after 24 hr by broth dilution method. The following applies: ATCC 9142, 24 h.
The subject of assay [1] is Staphylococcus epidermidis. Nature of the assay: Antimicrobial activity against Staphylococcus epidermidis ATCC 12228 after 24 hr by broth dilution method. The following applies: ATCC 12228, 24 h.
The next assay deals with Escherichia coli. Nature of the assay: Antimicrobial activity against Escherichia coli ATCC 25922 after 24 hr by broth dilution method. The following applies: ATCC 25922, 24 h.
The next assay deals with Salmonella typhi. Nature of the assay: Antimicrobial activity against Salmonella enterica subsp. enterica serovar Typhi ATCC 19430 after 24 hr by broth dilution method. The following applies: ATCC 19430, 24 h.
For a further assay, the system named is Pseudomonas aeruginosa. Nature of the assay: Antimicrobial activity against Pseudomonas aeruginosa ATCC 10145 after 24 hr by broth dilution method. The following applies: ATCC 10145, 24 h.
Another assay concerns Aspergillus awamori. Nature of the assay: Antimicrobial activity against Aspergillus awamori ATCC 22342 after 24 hr by broth dilution method. The settings on record: ATCC 22342, 24 h.
The subject of another assay is Bacillus spizizenii. Nature of the assay: Antimicrobial activity against Bacillus subtilis subsp. spizizenii ATCC 6633 after 24 hr by broth dilution method. The settings on record: ATCC 6633, 24 h.
Another assay relates to Candida albicans. In words: Antimicrobial activity against Candida albicans ATCC 10231 after 24 hr by broth dilution method. The following applies: ATCC 10231, 24 h.
A further assay has as its system Microsporum canis. In words: Antimicrobial activity against Arthroderma otae ATCC 11622 after 24 hr by broth dilution method. The settings on record: ATCC 11622, 24 h.
The subject of a further assay is Staphylococcus hominis. In words: Antimicrobial activity against Staphylococcus hominis ATCC 27844 after 24 hr by broth dilution method. The following applies: ATCC 27844, 24 h.
The test system of the next assay is Aspergillus fumigatus. In words: Antimicrobial activity against Aspergillus fumigatus after 24 hr by broth dilution method.
The test system of the next assay is Trichoderma viride. In words: Antimicrobial activity against Hypocrea rufa ATCC 52440 after 24 hr by broth dilution method. The settings on record: ATCC 52440, 24 h.
Another assay has as its system Bacillus pumilus. Nature of the assay: Antimicrobial activity against Bacillus pumilus ATCC 14884 after 24 hr by broth dilution method. The settings on record: ATCC 14884, 24 h.

Structures are written as SMILES. ≈ marks a conversion by molar mass, not a printed value.

On to `O=C1Nc2ccc(Cl)cc2/C1=N/N1C(=O)C(Cl)C1c1ccccc1O` (stereo unspecified), for which the MIC in the assay on Bacillus cereus was 300 µg/mL (≈ 797 µM); in the assay with Alternaria alternata, 150 µg/mL (≈ 399 µM); in the assay with Klebsiella pneumoniae it was 300 µg/mL (≈ 797 µM); in the assay on Fusarium solani it was 75 µg/mL (≈ 199 µM); with Rhizoctonia solani it was 150 µg/mL (≈ 399 µM); in the assay with Staphylococcus aureus it was 150 µg/mL (≈ 399 µM). The MIC in the assay with Proteus mirabilis was found to be 150 µg/mL (≈ 399 µM); against Aspergillus flavus, 150 µg/mL (≈ 399 µM); against Trichophyton longifusum, 150 µg/mL (≈ 399 µM); in the assay on Proteus vulgaris, 150 µg/mL (≈ 399 µM); with Micrococcus luteus, 150 µg/mL (≈ 399 µM); against Aspergillus niger, 75 µg/mL (≈ 199 µM). Also, the MIC was found to be 300 µg/mL (≈ 797 µM) in [1]; 150 µg/mL (≈ 399 µM) in the assay with Escherichia coli; 300 µg/mL (≈ 797 µM) against Salmonella typhi; 300 µg/mL (≈ 797 µM) in the assay with Pseudomonas aeruginosa; 150 µg/mL (≈ 399 µM) with Aspergillus awamori; 300 µg/mL (≈ 797 µM) with Bacillus spizizenii. For the same compound, the MIC was determined as 75 µg/mL (≈ 199 µM) with Candida albicans; 150 µg/mL (≈ 399 µM) in the assay with Microsporum canis; 300 µg/mL (≈ 797 µM) in the assay on Staphylococcus hominis; 150 µg/mL (≈ 399 µM) with Aspergillus fumigatus; 150 µg/mL (≈ 399 µM) in the assay with Trichoderma viride; 300 µg/mL (≈ 797 µM) with Bacillus pumilus.
Turning to `O=C1Nc2ccc(Cl)cc2/C1=N/N1C(=O)CSC1c1ccc(F)cc1` (stereo unspecified), the MIC against Bacillus cereus came to 9.37 µg/mL (≈ 24.9 µM); in the assay with Alternaria alternata, 9.37 µg/mL (≈ 24.9 µM); with Klebsiella pneumoniae, 18.8 µg/mL (≈ 49.9 µM); against Fusarium solani, 4.68 µg/mL (≈ 12.5 µM); against Rhizoctonia solani, 4.68 µg/mL (≈ 12.5 µM); against Staphylococcus aureus it was 18.8 µg/mL (≈ 49.9 µM). For the same compound, the MIC amounted to 18.8 µg/mL (≈ 49.9 µM) in the assay on Proteus mirabilis; 9.37 µg/mL (≈ 24.9 µM) against Aspergillus flavus; 4.68 µg/mL (≈ 12.5 µM) in the assay with Trichophyton longifusum; 18.8 µg/mL (≈ 49.9 µM) against Proteus vulgaris; 18.8 µg/mL (≈ 49.9 µM) in the assay on Micrococcus luteus; 9.37 µg/mL (≈ 24.9 µM) in the assay on Aspergillus niger. The MIC in assay [1] stood at 9.37 µg/mL (≈ 24.9 µM); in the assay on Escherichia coli, 18.8 µg/mL (≈ 49.9 µM); in the assay on Salmonella typhi, 9.37 µg/mL (≈ 24.9 µM); in the assay with Pseudomonas aeruginosa, 9.37 µg/mL (≈ 24.9 µM); in the assay with Aspergillus awamori, 9.37 µg/mL (≈ 24.9 µM); with Bacillus spizizenii it was 18.8 µg/mL (≈ 49.9 µM). For the same compound, the MIC in the assay on Candida albicans came out at 9.37 µg/mL (≈ 24.9 µM); in the assay on Microsporum canis, 9.37 µg/mL (≈ 24.9 µM); against Staphylococcus hominis, 9.37 µg/mL (≈ 24.9 µM); in the assay on Aspergillus fumigatus, 4.68 µg/mL (≈ 12.5 µM); against Trichoderma viride, 4.68 µg/mL (≈ 12.5 µM); with Bacillus pumilus, 9.37 µg/mL (≈ 24.9 µM).
`O=C1Nc2ccc(Cl)cc2/C1=N/N1C(=O)CSC1c1ccc([N+](=O)[O-])cc1` (stereo unspecified): the MIC in the assay with Bacillus cereus worked out at 18.8 µg/mL (≈ 46.5 µM); with Alternaria alternata, 4.68 µg/mL (≈ 11.6 µM); in the assay with Klebsiella pneumoniae it was 9.37 µg/mL (≈ 23.3 µM); with Fusarium solani, 9.37 µg/mL (≈ 23.3 µM); in the assay with Rhizoctonia solani, 9.37 µg/mL (≈ 23.3 µM); with Staphylococcus aureus, 9.37 µg/mL (≈ 23.3 µM). Moreover, the MIC in the assay with Proteus mirabilis came to 18.8 µg/mL (≈ 46.5 µM); in the assay with Aspergillus flavus, 4.68 µg/mL (≈ 11.6 µM); against Trichophyton longifusum it was 4.68 µg/mL (≈ 11.6 µM); against Proteus vulgaris, 37.5 µg/mL (≈ 93.1 µM); in the assay with Micrococcus luteus, 9.37 µg/mL (≈ 23.3 µM); with Aspergillus niger it was 4.68 µg/mL (≈ 11.6 µM). The MIC in assay [1] was determined as 18.8 µg/mL (≈ 46.5 µM); against Escherichia coli, 18.8 µg/mL (≈ 46.5 µM); in the assay with Salmonella typhi it was 18.8 µg/mL (≈ 46.5 µM); against Pseudomonas aeruginosa, 9.37 µg/mL (≈ 23.3 µM); in the assay on Aspergillus awamori it was 9.37 µg/mL (≈ 23.3 µM); with Bacillus spizizenii it was 37.5 µg/mL (≈ 93.1 µM). Further, the minimum inhibitory concentration (MIC) against Candida albicans came out at 9.37 µg/mL (≈ 23.3 µM); against Microsporum canis, 4.68 µg/mL (≈ 11.6 µM); with Staphylococcus hominis it was 9.37 µg/mL (≈ 23.3 µM); against Aspergillus fumigatus it was 4.68 µg/mL (≈ 11.6 µM); with Trichoderma viride it was 9.37 µg/mL (≈ 23.3 µM); against Bacillus pumilus, 18.8 µg/mL (≈ 46.5 µM).
Consider `O=C1Nc2ccc(Cl)cc2/C1=N/N1C(=O)CSC1c1ccco1` (stereo unspecified), for which the MIC came out at 75 µg/mL (≈ 216 µM) in the assay with Bacillus cereus; 37.5 µg/mL (≈ 108 µM) with Alternaria alternata; 75 µg/mL (≈ 216 µM) with Klebsiella pneumoniae; 37.5 µg/mL (≈ 108 µM) with Fusarium solani; 18.8 µg/mL (≈ 53.9 µM) in the assay on Rhizoctonia solani; 75 µg/mL (≈ 216 µM) in the assay with Staphylococcus aureus. Besides, the minimal inhibitory concentration (MIC) against Proteus mirabilis was 75 µg/mL (≈ 216 µM); against Aspergillus flavus, 37.5 µg/mL (≈ 108 µM); against Trichophyton longifusum, 18.8 µg/mL (≈ 53.9 µM); against Proteus vulgaris, 75 µg/mL (≈ 216 µM); in the assay with Micrococcus luteus, 75 µg/mL (≈ 216 µM); in the assay on Aspergillus niger it was 37.5 µg/mL (≈ 108 µM). For the same compound, the MIC in assay [1] was determined as 75 µg/mL (≈ 216 µM); in the assay with Escherichia coli, 75 µg/mL (≈ 216 µM); against Salmonella typhi it was 37.5 µg/mL (≈ 108 µM); against Pseudomonas aeruginosa, 75 µg/mL (≈ 216 µM); against Aspergillus awamori, 37.5 µg/mL (≈ 108 µM); in the assay with Bacillus spizizenii it was 37.5 µg/mL (≈ 108 µM). For the same compound, the MIC against Candida albicans was 18.8 µg/mL (≈ 53.9 µM); in the assay with Microsporum canis, 37.5 µg/mL (≈ 108 µM); in the assay with Staphylococcus hominis it was 37.5 µg/mL (≈ 108 µM); with Aspergillus fumigatus, 18.8 µg/mL (≈ 53.9 µM); with Trichoderma viride, 37.5 µg/mL (≈ 108 µM); in the assay on Bacillus pumilus it was 37.5 µg/mL (≈ 108 µM).
